Data reported in US20150164762A1, “USE OF ETHANOLAMINE PHOSPHATE” (priority 2012, published 2015).

Legend:
BEAS-2B [1] = assay: Permeability test, 4-kilodalton fluorescent dextran through BEAS-2B cell sheet (Papp); type: cell-based, human; conditions: EP 1 mM, 7 days after seeding
Method: Cells of the established normal human airway epithelial cell line BEAS-2B were seeded to 1×10^5 cells/cm^2 on a cell culture insert (353104, BD Falcon) (FIG. 14). 10% FBS RPMI-1640 was used as the medium. The amount of medium was 200 μl on the insert side and 750 μl on the well side. Beginning the next day, substitution/medium replacement was performed once a day with 1% FBS RPMI-1640 prepared with the following 4 reagent conditions, and transepithelial electrical resistance (TER) was measured with MilliCell (Millipore). • Condition 1: Control • Condition 2: EP 1 mM • Condition 3: Dexamethasone 1 μM (dexamethasone (Dex): positive control substance known to enhance barrier function) • Condition 4: EP 1 mM and Dex 1 μM
7 days after cell seeding a permeability test was performed as follows.
A 4-kilodalton fluorescent dextran molecule (Sigma) was added to the cell culture insert to a concentration of 0.1 mg/ml, 20 μl of the medium on the well side was removed after 1 hour, and the amount of permeating fluorescent dextran was estimated from the fluorescent strength at each concentration. The permeation rate Papp of a substance from the insert side to the well side is normally determined by the following formula.
Papp=(volume of medium on well side/insert area×initial insert concentration)×(altered concentration on well side/elapsed time)

BEAS-2B [2] = assay: Cell toxicity of H2O2 after EP pre-treatment (WST-8 assay); type: cell-based, human
Method: Cells of the normal airway epithelial cell line BEAS-2B were seeded at a density of 1×10^5/cm^2 on a 96-well plate, and after 24 hours the medium was replaced with 0.5% FBS RPMI 1640 containing EP at final concentrations of 0, 250 and 500 μM. 24 hours after medium replacement the medium was replaced with 0.5% FBS RPMI-1640, and serially diluted H2O2 was administered (n=4). 24 hours after H2O2 administration a cell toxicity test WST-8 assay (Cell Counting Kit-8, Dojindo) was performed. For the data analysis, the 50% cell death concentration EC50 was calculated with GraphPad Prism 5 statistical analysis software.

BEAS-2B cells = assay: WST-8 proliferation test, BEAS-2B cells at different FBS concentrations; type: cell-based, human
Method: 10% FBS RPMI-1640 was used as the medium. […] Following medium replacement, 10 μl/well of EP solution was added. A proliferation test (WST-8 assay) was performed after 96 hours. The operations of the WST-8 assay were as follows.
(1) The medium was removed from the 96-well plate by decantation and tapping.
(2) WST-8 reagent (Dojindo) was mixed to a ratio of 1:10 with serum-free medium (RPMI-1640) that had been warmed in advance at 37° C., and added to the wells from which the medium had been removed.
(3) A color reaction was performed for 1 hour in a CO2 incubator, and absorbance at 450 nm and 650 nm was measured with an absorbance plate reader.
(4) Absorbance at 450 nm-absorbance at 650 nm was calculated for purposes of correction between plates.
(5) The average of the 4 blank wells was subtracted from the corrected value of all wells, and the result was given as the relative corresponding cell number.

BEAS-2B [3] = assay: Suppression of the proliferative effect of EP by a MEK 1/2 inhibitor (WST-8); type: cell-based, human; conditions: 250 μM EP, no MEK 1/2 inhibitor, 0.1% FBS, 72 hours
HEKa cells [4] = assay: Transepithelial electrical resistance (TER), HEKa; type: cell-based, human; conditions: 1 mM EP
Method: HEKa cells were seeded to 6×10^4 cells/cm^2 on a cell culture insert (353104, BD Falcon). Culture was performed in complete medium consisting of HKGS Kit (S-001-K, Invitrogen) added to Epilife basal medium (M-EPI-500-CA, Invitrogen), and once confluence was reached, a medium containing […] the specific compounds listed under Conditions 1 to 3 above was substituted for the complete medium, and medium replacement was performed once a day. TER was measured as in Example 11.

HHDPC cells = assay: WST-8 proliferation test, primary normal human hair dermal papilla cells (HHDPC)
Method: HHDPC cells (Cosmo Bio) were seeded to 1×10^4 cells/cm^2 on a 96-well plate. Complete MSCM medium (500, ScienCell) was used as the medium. After 24 hours, the cells were washed gently with 200 μl per well of PBS, the medium was replaced with 90 μl per well of 0% FBS DMEM with 1 vol % of complete MSCM medium added thereto, and the cells were cultured for 24 hours. After culture, 10 μl per well of EP solution was added, and a proliferation test (WST-8 assay) was performed 6 days after EP administration. The WST-8 assay was performed as in Example 1. The same test was performed using minoxidil, which has a clinical hair growth effect.

A549 = assay: WST-8 proliferation test, A549 cancer cells; type: cell-based, human; conditions: 0% FBS, 96 hours, even at high concentrations
Method: (§1) 0% FBS RPMI-1640 was used as the medium. 24 hours after seeding the cells were washed with 20 μl per well of PBS, and the medium was replaced with 0% FBS RPMI-1640. Following medium replacement, EP solution with 10 times the set concentration was added 10 μl per well, and a proliferation test (WST-8 assay) was performed 96 hours after addition of EP.

HEKa cells [5] = assay: WST-8 proliferation test, primary normal keratinocytes (HEKa); type: cell-based, human; conditions: Epilife basal medium, 21 days
Method: HEKa cells (Takara Bio) were seeded to 2×10^4 cells/cm^2 on a 48-well plate. Epilife basal medium (M-EPI-500-CA, Invitrogen) with HKGS Kit (S-001-K, Invitrogen) as an added factor was used as the medium. This HKGS Kit contains bovine pituitary extract, bovine insulin, hydrocortisone, bovine transferrin and human EGF.

HEK 293 = assay: WST-8 proliferation test, HEK 293 immortalized model cells; type: cell-based, human; conditions: 0% FBS, 96 hours, even at high concentrations
Method: as §1

HBEpC cells = assay: WST-8 proliferation test, primary normal human airway epithelial cells (HBEpC); type: cell-based
Method: BEGM (Takara Bio, complete medium) was used as the medium. […] Following medium replacement, 10 μl per well of an EP solution of 10 times the set concentration was added, and after 96 hours a proliferation test (WST-8 assay) was performed.

SMILES: NCCOP(=O)(O)O [EP, Ethanolamine phosphate]
- permeation rate Papp of fluorescent dextran, lower than control (BEAS-2B [1]): 25%
- Toxity reduction rate % (H2O2 cytotoxicity) (BEAS-2B [2]; EP pre-treatment 250 uM): 33%
- Toxity reduction rate % (H2O2 cytotoxicity) (BEAS-2B [2]; EP pre-treatment 500 uM): 28%
- reduction of the cytotoxicity of H2O2 (BEAS-2B [2]; pre-treatment with 250 to 500 μM of EP): about 30%
- proliferation of BEAS-2B cells (BEAS-2B cells; 0-0.5% FBS, 96 hours): dependent on EP concentration
- toxicity attributable to EP (BEAS-2B cells; high-concentration range (mM level)): no obvious toxicity
- cell proliferation, ratio relative to control using 0 μM EP (BEAS-2B cells; medium contains no FBS, 96 hours): ≤ 11 times
- cell proliferation (BEAS-2B [3]): roughly 3 fold
- rise in TER value relative to the control (HEKa cells [4]): 2.3 fold
- effective concentration range for proliferative effect (HHDPC cells; 6 days): very broad concentration range
- proliferative effect (HHDPC cells; 6 days): equal to or greater than that of minoxidil
- cell toxicity (HHDPC cells; high concentrations): non-toxic
- cell proliferation ability (A549): absolutely no cell proliferation ability
- growth-stimulating effect (HEKa cells [5]): growth-stimulating effect
- minimum concentration giving roughly the maximum growth-stimulating effect (HEKa cells [5]): 15.6 µM
- cell proliferation ability (HEK 293): absolutely no cell proliferation ability
- growth-stimulating effect (HBEpC cells; 7 μM, BEBM basal medium, 96 hours): roughly two-fold
- toxicity (HBEpC cells; mM level): no toxicity
